Results published in ChEMBL document CHEMBL5705899 (Biochem J, 2014).
Calls of active or inactive are those of the source.

Legend:
[1] = molecular target: CDK7/Cyclin H/MNAT1 (Homo sapiens) (UniProt P51946+P50613+P51948); test: Inhibition of human CDK7/CyclinH/MAT1 at 1 uM using RBER-CHKtide as substrate in presence of 33P-ATP by ProQinase assay; type: protein-complex assay
[2] = molecular target: SRSF protein kinase 3 (Homo sapiens) (UniProt Q9UPE1); test: Inhibition of human STK23 at 1 uM using RBER-CHKtide as substrate in presence of 33P-ATP by ProQinase assay
[3] = molecular target: LIM domain kinase 1 (Homo sapiens) (UniProt P53667); test: Inhibition of human LIMK1 at 1 uM using CFL2 as substrate in presence of 33P-ATP by ProQinase assay
[4] = molecular target: Glycogen synthase kinase-3 beta (Homo sapiens) (UniProt P49841); test: Inhibition of recombinant human His6-tagged GSK3beta (2 to 420 residues) expressed in baculovirus infected Sf21 cells assessed as remaining activity at 1 uM using phospho-GS2 peptide as substrate incubated for 30 mins in presence of [gamma-33P]ATP by filter binding method relative to control
[5] = molecular target: Serine/threonine-protein kinase 17A (Homo sapiens) (UniProt Q9UEE5); test: Inhibition of human STK17A at 1 uM using RB-CTF as substrate in presence of 33P-ATP by ProQinase assay
[6] = test system: PI3-kinase p110-alpha/p85-alpha (Homo sapiens), P27986+P42336 [E545K]; test: Inhibition of recombinant human N-terminal His6-tagged PI3Kalpha E545K mutant (2 to 1068 residues)/p85A (1 to 724 residues) expressed in baculovirus expression system at 1 uM using diC8 PIP2 as substrate incubated for 80 mins by ADP-Glo assay
[7] = molecular target: Dual serine/threonine and tyrosine protein kinase (Homo sapiens) (UniProt Q6XUX3); test: Inhibition of human RIPK5 at 1 uM using RBER-CHKtide as substrate in presence of 33P-ATP by ProQinase assay
[8] = molecular target: Serine/threonine-protein kinase 25 (Homo sapiens) (UniProt O00506); test: Inhibition of human STK25 at 1 uM using casein as substrate in presence of 33P-ATP by ProQinase assay
[9] = molecular target: Serine/threonine-protein kinase Chk2 (Homo sapiens) (UniProt O96017); test: Inhibition of recombinant human N-terminal GST/C-terminal His6-tagged CHK2 (5 to 543 residues) expressed in Escherichia coli assessed as remaining activity at 1 uM using CHKtide as substrate incubated for 30 mins in presence of [gamma-33P]ATP by filter binding method relative to control
[10] = molecular target: Serine/threonine-protein kinase Chk1 (Homo sapiens) (UniProt O14757); test: Inhibition of human CHK1 at 1 uM using RBER-CHKtide as substrate in presence of 33P-ATP by ProQinase assay
[11] = molecular target: Mitogen-activated protein kinase 13 (Homo sapiens) (UniProt O15264); test: Inhibition of recombinant human GST-tagged P38delta (1 to 365 residues) expressed in Escherichia coli assessed as remaining activity at 1 uM using MBP as substrate incubated for 30 mins in presence of [gamma-33P]ATP by filter binding method relative to control
[12] = molecular target: Tyrosine-protein kinase Srms (Homo sapiens) (UniProt Q9H3Y6); test: Inhibition of human SRMS at 1 uM using PolyEY as substrate in presence of 33P-ATP by ProQinase assay
[13] = molecular target: Serine/threonine-protein kinase 24 (Homo sapiens) (UniProt Q9Y6E0); test: Inhibition of human MST3 at 1 uM using casein as substrate in presence of 33P-ATP by ProQinase assay
[14] = molecular target: SRSF protein kinase 2 (Homo sapiens) (UniProt P78362); test: Inhibition of human SRPK2 at 1 uM using MBP as substrate in presence of 33P-ATP by ProQinase assay
[15] = molecular target: Diacylglycerol kinase zeta (Homo sapiens) (UniProt Q13574); test: Inhibition of recombinant human N-terminal His6-tagged DGKzeta (1 to 929 residues) expressed in baculovirus expression system at 1 uM using diacyl-glycerol as substrate incubated for 40 mins by ADP-Glo assay
[16] = molecular target: Serine/threonine-protein kinase mTOR (Homo sapiens) (UniProt P42345); test: Inhibition of human mTOR at 1 uM using casein as substrate in presence of 33P-ATP by ProQinase assay
[17] = test system: Ribosomal protein S6 kinase beta-1 (Homo sapiens), P23443 [T412E]; test: Inhibition of recombinant human His6-tagged S6K1 T412E mutant (1 to 421 residues) expressed in baculovirus infected sf21 cells assessed as remaining activity at 1 uM using KKRNRTLTVas substrate incubated for 30 mins in presence of [gamma-33P]ATP by filter binding method relative to control
[18] = molecular target: Macrophage-stimulating protein receptor (Homo sapiens) (UniProt Q04912); test: Inhibition of human RON at 1 uM using polyEY as substrate in presence of 33P-ATP by ProQinase assay
[19] = molecular target: Serine/threonine-protein kinase PAK 4 (Homo sapiens) (UniProt O96013); test: Inhibition of human PAK4 at 1 uM using bio-4xCHKT as substrate in presence of 33P-ATP by ProQinase assay
[20] = molecular target: Cyclin-dependent kinase 1/cyclin B1 (Homo sapiens) (UniProt P06493+P14635); test: Inhibition of human CDK1/CycB1 at 1 uM using RBER-CHKtide as substrate in presence of 33P-ATP by ProQinase assay; type: protein-complex assay
[21] = molecular target: Serine/threonine-protein kinase PLK3 (Homo sapiens) (UniProt Q9H4B4); test: Inhibition of human PLK3 at 1 uM using casein as substrate in presence of 33P-ATP by ProQinase assay
[22] = molecular target: Tyrosine-protein kinase BTK (Homo sapiens) (UniProt Q06187); test: Inhibition of recombinant human N-terminal His6-tagged BTK (2 to 659 residues) expressed in baculovirus infected Sf21 cells assessed as remaining activity at 1 uM using KVEKIGEGTYGVVYK as substrate incubated for 30 mins in presence of [gamma-33P]ATP by filter binding method relative to control
TAK1/TAB1 (Homo sapiens) = TAK1/TAB1 (Homo sapiens) (UniProt Q15750+O43318); test: Inhibition of human MAP3K7/MAP3K7IP1 at 1 uM using RB-S6P as substrate in presence of 33P-ATP by ProQinase assay; type: protein-complex assay
[23] = molecular target: Tyrosine-protein kinase ITK/TSK (Homo sapiens) (UniProt Q08881); test: Inhibition of human ITK at 1 uM using polyEY as substrate in presence of 33P-ATP by ProQinase assay
[24] = molecular target: Myotonin-protein kinase (Homo sapiens) (UniProt Q09013); test: Inhibition of human DMPK at 1 uM using RBER-CHKtide as substrate in presence of 33P-ATP by ProQinase assay

Sequence of Serine/threonine-protein kinase PLK3 (Homo sapiens) (Q9H4B4 whole entry, looked up, the tested form may be a part): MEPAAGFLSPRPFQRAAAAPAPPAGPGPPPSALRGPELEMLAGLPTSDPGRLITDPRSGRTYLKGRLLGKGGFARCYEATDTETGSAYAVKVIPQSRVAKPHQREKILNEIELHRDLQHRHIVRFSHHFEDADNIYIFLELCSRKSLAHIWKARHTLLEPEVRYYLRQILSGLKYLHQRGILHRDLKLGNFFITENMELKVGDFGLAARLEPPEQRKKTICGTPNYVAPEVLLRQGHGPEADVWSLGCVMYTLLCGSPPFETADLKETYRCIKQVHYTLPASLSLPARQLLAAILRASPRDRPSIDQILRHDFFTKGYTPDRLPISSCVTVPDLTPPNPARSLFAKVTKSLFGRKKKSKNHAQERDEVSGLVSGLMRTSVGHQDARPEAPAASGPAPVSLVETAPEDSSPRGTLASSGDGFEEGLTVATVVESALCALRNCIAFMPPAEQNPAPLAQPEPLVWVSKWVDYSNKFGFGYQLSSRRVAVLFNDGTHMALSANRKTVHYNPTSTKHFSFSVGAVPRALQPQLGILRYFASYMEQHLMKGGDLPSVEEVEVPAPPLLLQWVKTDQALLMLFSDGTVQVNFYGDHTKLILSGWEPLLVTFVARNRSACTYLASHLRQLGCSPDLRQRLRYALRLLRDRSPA
Sequence of Diacylglycerol kinase zeta (Homo sapiens) (Q13574 whole entry, the tested form may be a part): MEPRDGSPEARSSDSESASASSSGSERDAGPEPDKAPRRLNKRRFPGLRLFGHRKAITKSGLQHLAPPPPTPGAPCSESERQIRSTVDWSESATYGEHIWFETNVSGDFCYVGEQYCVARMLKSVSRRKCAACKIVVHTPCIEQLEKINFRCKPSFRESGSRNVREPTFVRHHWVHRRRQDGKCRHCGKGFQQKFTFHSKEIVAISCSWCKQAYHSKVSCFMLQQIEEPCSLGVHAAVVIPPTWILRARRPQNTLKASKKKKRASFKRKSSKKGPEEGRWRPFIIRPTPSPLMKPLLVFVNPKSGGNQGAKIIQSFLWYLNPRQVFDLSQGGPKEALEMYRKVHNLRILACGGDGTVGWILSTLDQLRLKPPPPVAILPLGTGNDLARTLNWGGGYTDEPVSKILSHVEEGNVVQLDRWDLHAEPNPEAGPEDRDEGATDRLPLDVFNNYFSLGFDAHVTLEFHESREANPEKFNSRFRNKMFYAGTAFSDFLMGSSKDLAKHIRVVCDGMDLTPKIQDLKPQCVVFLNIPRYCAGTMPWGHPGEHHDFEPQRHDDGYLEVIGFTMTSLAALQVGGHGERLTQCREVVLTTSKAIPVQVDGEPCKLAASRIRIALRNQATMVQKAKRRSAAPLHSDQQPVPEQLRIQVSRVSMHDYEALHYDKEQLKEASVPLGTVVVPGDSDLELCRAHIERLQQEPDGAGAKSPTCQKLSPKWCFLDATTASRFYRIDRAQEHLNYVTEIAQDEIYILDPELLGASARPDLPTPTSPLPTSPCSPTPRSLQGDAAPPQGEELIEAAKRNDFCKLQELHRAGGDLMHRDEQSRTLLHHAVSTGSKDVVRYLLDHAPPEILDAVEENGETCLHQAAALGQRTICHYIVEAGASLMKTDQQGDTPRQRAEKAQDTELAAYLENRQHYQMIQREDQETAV
Sequence of Serine/threonine-protein kinase 17A (Homo sapiens) (Q9UEE5 whole entry, the tested form may be a part): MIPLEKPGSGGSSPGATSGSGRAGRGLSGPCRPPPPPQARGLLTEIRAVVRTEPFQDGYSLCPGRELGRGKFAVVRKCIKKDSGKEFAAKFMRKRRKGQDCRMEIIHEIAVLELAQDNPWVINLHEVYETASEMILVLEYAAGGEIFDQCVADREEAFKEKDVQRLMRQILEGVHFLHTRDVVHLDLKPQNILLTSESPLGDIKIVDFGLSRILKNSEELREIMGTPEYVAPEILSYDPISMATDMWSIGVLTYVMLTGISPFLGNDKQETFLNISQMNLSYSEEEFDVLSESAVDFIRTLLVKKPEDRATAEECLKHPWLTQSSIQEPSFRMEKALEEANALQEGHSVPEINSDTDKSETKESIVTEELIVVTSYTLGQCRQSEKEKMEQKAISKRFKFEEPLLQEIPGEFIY
Sequence of Tyrosine-protein kinase ITK/TSK (Homo sapiens) (Q08881 whole entry): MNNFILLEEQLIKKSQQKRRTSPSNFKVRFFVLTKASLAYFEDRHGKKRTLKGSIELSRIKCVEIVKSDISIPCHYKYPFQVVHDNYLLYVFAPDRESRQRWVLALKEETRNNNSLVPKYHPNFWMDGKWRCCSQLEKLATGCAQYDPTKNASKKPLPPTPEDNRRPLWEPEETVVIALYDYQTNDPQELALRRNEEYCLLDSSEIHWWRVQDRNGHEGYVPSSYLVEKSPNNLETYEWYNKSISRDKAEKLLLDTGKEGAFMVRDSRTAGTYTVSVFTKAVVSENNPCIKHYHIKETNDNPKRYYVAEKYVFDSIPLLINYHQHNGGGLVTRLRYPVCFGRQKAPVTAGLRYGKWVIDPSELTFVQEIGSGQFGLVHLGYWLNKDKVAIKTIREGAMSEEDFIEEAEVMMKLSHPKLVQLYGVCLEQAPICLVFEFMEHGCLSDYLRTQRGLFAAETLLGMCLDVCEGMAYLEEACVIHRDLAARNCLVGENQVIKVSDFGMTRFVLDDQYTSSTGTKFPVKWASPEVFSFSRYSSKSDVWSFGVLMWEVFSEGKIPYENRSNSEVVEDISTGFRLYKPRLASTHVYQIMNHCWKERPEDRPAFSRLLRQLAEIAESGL
Sequence of SRSF protein kinase 3 (Homo sapiens) (Q9UPE1 whole entry, the tested form may be a part): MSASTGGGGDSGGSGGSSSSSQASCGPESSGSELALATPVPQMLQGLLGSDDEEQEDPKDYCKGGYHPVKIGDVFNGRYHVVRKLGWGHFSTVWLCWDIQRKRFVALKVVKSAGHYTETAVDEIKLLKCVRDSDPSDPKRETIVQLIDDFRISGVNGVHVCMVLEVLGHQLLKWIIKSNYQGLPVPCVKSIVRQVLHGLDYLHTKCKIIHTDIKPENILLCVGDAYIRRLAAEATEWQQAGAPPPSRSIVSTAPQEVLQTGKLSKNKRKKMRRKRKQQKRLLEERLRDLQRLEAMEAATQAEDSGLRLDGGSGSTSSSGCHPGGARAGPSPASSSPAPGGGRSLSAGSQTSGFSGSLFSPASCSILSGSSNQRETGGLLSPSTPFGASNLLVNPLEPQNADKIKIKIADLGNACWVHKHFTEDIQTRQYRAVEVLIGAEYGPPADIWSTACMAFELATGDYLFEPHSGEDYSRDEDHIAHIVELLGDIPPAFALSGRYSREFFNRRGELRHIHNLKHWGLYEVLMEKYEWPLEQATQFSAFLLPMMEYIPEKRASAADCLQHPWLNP
Sequence of Serine/threonine-protein kinase PAK 4 (Homo sapiens) (O96013 whole entry, looked up): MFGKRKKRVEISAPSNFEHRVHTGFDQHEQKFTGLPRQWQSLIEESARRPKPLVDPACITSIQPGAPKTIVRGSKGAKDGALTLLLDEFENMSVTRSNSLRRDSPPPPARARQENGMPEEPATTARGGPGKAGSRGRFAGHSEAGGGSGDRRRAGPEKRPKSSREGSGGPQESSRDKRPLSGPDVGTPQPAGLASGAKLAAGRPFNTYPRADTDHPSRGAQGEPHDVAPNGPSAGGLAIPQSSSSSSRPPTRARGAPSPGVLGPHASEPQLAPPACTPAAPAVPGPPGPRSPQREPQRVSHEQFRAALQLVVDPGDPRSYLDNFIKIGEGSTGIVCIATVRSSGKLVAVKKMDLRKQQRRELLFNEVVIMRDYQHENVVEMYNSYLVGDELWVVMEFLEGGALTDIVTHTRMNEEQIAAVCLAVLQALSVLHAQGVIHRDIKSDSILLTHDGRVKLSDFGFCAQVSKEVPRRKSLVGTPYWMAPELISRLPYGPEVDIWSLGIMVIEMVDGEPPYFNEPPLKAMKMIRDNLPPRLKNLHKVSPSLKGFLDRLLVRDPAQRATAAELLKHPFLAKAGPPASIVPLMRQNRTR
Sequence of Tyrosine-protein kinase Srms (Homo sapiens) (Q9H3Y6 whole entry): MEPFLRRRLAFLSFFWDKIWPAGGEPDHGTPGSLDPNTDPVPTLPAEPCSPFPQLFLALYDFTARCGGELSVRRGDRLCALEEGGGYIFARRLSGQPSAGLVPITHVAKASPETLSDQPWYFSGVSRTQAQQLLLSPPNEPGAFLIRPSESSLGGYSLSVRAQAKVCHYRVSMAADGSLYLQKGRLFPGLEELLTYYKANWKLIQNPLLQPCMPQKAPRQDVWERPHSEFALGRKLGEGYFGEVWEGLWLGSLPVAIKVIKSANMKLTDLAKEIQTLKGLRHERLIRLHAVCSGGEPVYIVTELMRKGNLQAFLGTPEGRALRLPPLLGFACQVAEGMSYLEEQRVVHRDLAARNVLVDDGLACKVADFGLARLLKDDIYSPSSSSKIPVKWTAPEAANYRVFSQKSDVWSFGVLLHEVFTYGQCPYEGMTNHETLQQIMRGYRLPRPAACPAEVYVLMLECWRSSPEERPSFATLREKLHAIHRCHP
Sequence of SRSF protein kinase 2 (Homo sapiens) (P78362 whole entry, looked up, the tested form may be a part): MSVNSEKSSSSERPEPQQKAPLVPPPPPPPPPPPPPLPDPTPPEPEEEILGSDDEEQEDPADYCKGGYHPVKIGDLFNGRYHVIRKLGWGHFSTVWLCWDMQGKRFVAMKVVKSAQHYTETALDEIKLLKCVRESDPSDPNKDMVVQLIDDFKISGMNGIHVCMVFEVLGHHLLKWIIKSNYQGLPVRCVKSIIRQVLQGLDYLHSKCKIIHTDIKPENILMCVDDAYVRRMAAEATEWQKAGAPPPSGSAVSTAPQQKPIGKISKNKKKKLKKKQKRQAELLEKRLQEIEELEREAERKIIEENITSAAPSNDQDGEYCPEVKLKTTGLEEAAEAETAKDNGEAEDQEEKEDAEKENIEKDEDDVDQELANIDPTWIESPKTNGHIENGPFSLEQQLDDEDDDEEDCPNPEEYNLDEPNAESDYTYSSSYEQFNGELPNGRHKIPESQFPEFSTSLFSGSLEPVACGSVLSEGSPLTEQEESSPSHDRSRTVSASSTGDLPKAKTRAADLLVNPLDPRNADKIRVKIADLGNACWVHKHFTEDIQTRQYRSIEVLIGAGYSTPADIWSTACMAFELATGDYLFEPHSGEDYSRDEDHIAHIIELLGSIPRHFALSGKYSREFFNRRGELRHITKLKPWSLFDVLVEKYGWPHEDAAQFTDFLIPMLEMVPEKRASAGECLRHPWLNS

CC(C)(O)CNc1ncc(-c2ccnc(Nc3ccnc(Cl)c3)n2)c(CC2CC2)n1
103%: Activity [9]
51%: Activity [4]
inactive: inhibition [1] | inhibition [2] | inhibition [3] | inhibition [5] | inhibition [6] | inhibition [7] | inhibition [8] | inhibition [10] | inhibition [12] | inhibition [13] | inhibition [14] | inhibition [15] | inhibition [16] | inhibition [18] | inhibition [19] | inhibition [20] | inhibition [21] | inhibition (TAK1/TAB1 (Homo sapiens)) | inhibition [23] | inhibition [24]
116%: Activity [17]
111%: Activity [11]
108%: Activity [22]
